Among the data in patent publication US20180282281A1, “IMMUNOREGULATORY AGENTS” (FLEXUS BIOSCIENCES, INC., priority 2014, published 2018) are IC50 values, retold here.

Where only a bound is given, the exact number is not on record here.

For the first test, the target named is T1, human IDO1 (Homo sapiens, UniProt P14902).
T1 construct: expressed in transfected cells
T1 sequence (P14902 whole entry): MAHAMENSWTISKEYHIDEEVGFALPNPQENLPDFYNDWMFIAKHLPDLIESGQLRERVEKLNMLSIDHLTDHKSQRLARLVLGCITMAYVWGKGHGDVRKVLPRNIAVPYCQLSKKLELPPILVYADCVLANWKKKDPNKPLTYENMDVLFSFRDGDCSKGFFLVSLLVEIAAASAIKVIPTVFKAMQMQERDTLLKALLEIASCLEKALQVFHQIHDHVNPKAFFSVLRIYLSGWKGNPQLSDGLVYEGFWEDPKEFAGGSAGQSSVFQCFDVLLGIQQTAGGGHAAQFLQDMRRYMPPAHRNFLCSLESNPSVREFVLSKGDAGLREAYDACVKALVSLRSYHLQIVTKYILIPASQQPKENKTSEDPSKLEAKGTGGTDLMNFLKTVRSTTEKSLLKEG
Nature of the test: HEK293 human IDO1 cell-based IDO inhibition assay. As to conditions: HEK293 cells stably expressing human IDO1; 20 hours incubation; absorbance at 490 nm (Ehrlich reagent); 500 nM reference standard = 100% inhibition; read-out: HEK Human IDO-1 Potency. The method, boiled down: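 HEK293 cells stably expressing human IDO1, 10,000/well in RPMI with 10% FBS, treated with compound 20 h at 37 °C. Stopped with 0.2% final TCA, 50 °C for 30 min; supernatant mixed with 0.2% Ehrlich reagent in acetic acid, 30 min RT, absorbance read at 490 nm.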
In the case of “N-(4-chlorophenyl)-2-(cis-4-(6-fluoroquinolin-4-yl)-1-hydroxycyclohexyl) propanamide [Example 231]”, the IC50 is < 0.25 µM.
The same measure, in the same setting: for “N-(4-chlorophenyl)-2-(cis-4-(6-fluoroquinolin-4-yl)-1-hydroxycyclohexyl) propanamide [Example 232]” the value was < 0.05 µM; for “N-(4-chlorophenyl)-2-(trans-4-(6-fluoroquinolin-4-yl)-1-hydroxycyclohexyl) propanamide [Example 229]”, < 0.05 µM; for “N-(4-chlorophenyl)-2-(trans-4-(6-fluoroquinolin-4-yl)-1-hydroxycyclohexyl) propanamide [Example 230]”, < 0.25 µM.

Staying with this test, now noted: read-out: HEK Human IDO-1 Potency.
As to `O=C(CC1CCN(c2ccnc3ccc(F)cc23)CC1)Nc1ccc(Br)cc1` [Example 117], the IC50 is > 0.25 µM.
The same measure, in the same setting: for `Cc1ccc(NC(=O)CC2CCN(c3ccnc4ccc(F)cc34)CC2)c(F)c1` [Example 118] the value was > 0.25 µM; for `Cc1cc(Cl)ccc1NC(=O)CC1CCN(c2ccnc3ccc(F)cc23)CC1` [Example 119], > 0.25 µM.
Same read-out and setting: as for `CC1(CC(=O)Nc2ccc(F)cc2)CCN(c2ccnc3ccc(F)cc23)CC1` [Example 120, N-(4-Fluorophenyl)-2-(1-(6-fluoroquinolin-4-yl)-4-methylpiperidin-4-yl)acetamide], the figure is > 0.25 µM; as for `Cc1ccc(NC(=O)CC2(C)CCN(c3ccnc4ccc(F)cc34)CC2)cc1` [Example 121], > 0.25 µM.
Consider `CC1(CC(=O)Nc2cncnc2)CCN(c2ccnc3ccc(F)cc23)CC1` [Example 122], for which the IC50 was > 0.25 µM.
The same measure, in the same setting: as for `CC1(CC(=O)Nc2ccc(Cl)cc2)CCN(c2ccnc3ccc(F)cc23)CC1` [Example 123], the figure is < 0.05 µM.
For the molecule `COc1ncc(NC(=O)CC2(C)CCN(c3ccnc4ccc(F)cc34)CC2)cn1` [Example 124], the IC50 was > 0.25 µM.
Still for that read-out and setting: as for `CCOc1ccc(NC(=O)CC2(C)CCN(c3ccnc4ccc(F)cc34)CC2)cc1` [Example 125], the figure is < 0.25 µM.
Still for that read-out and setting: as for `CC(C(=O)O)c1ccc(C[C@@H](C(=O)Nc2ccc(C#N)cc2)[C@H]2CC[C@@H](c3ccnc4ccc(F)cc43)CC2)cc1` (stereo partly drawn) [Example 140, 2-(4-((R)-3-((4-Cyanophenyl)amino)-2-((cis)-4-(6-fluoroquinolin-4-yl)cyclohexyl)-3-oxopropyl)phenyl)propanoic Acid], the figure is < 0.05 µM; as for `C[C@@H](C(=O)Nc1ccc(Cl)cc1O)[C@H]1CC[C@@H](c2ccnc3ccc(F)cc32)CC1` [Example 238, (R)-N-(4-chloro-2-hydroxyphenyl)-2-(cis-4-(6-fluoroquinolin-4-yl)cyclohexyl)propanamide], < 0.05 µM; as for `C[C@@H](C(=O)Nc1ccc(Cl)c(O)c1)[C@H]1CC[C@@H](c2ccnc3ccc(F)cc32)CC1` [Example 239, (R)-N-(4-chloro-3-hydroxyphenyl)-2-(cis-4-(6-fluoroquinolin-4-yl)cyclohexyl)propanamide], < 0.05 µM.
Take `C[C@@H](C(=O)NC1CC2CCC1C2)[C@H]1CC[C@@H](c2ccnc3ccc(F)cc32)CC1` (stereo partly drawn) [Example 240, (2R)-N-((2S)-bicyclo[2.2.1]heptan-2-yl)-2-(cis-4-(6-fluoroquinolin-4-yl)cyclohexyl)propanamide]: the IC50 was < 0.25 µM.
Turning to `C=CC[C@@H](C(=O)Nc1ccc(Cl)cc1N)[C@H]1CC[C@@H](c2ccnc3ccc(F)cc32)CC1` [Example 241, (R)-N-(2-amino-4-chlorophenyl)-2-(cis-4-(6-fluoroquinolin-4-yl)cyclohexyl)pent-4-enamide], the IC50 is < 0.05 µM.
Same read-out and setting: as for `CC1(CC(=O)NC2(C)CCCCC2)CCN(c2ccnc3ccc(F)cc23)CC1` [Example 242, 2-(1-(6-Fluoroquinolin-4-yl)-4-methylpiperidin-4-yl)-N-(1-methylcyclohexyl)acetamide], the figure is < 0.05 µM; as for `CCC(C(=O)Nc1ccc(C)cc1)N1CCC(Oc2ccnc3ccc(F)cc23)CC1` (stereo not shown) [compound 97], < 0.25 µM.
Still for that read-out and setting: as for `CCC(C(=O)Nc1ccc(Cl)cc1)N1CCC(Oc2ccnc3ccc(F)cc23)CC1` (stereo not shown) [compound 98], the figure is < 0.25 µM.
On the same count and under the same terms, for `CC(C(=O)Nc1ccc(F)cc1)N1CCC(Oc2ccnc3ccc(F)cc23)CC1` (stereo not shown) [compound 99] the value was < 0.05 µM; for `CCOc1ccc(NC(=O)C(C)N2CCC(Oc3ccnc4ccc(F)cc34)CC2)cc1` (stereo not shown) [compound 100], < 0.05 µM.
Regarding `Cc1ccc(NC(=O)C(C)N2CCC(Oc3ccnc4ccc(F)cc34)CC2)cc1` (stereo not shown) [compound 101], the IC50 was < 0.05 µM.
The same measure, in the same setting: as for `CCOc1ccc(NC(=O)C(C)N2CCC(Oc3ccnc4ccc(F)cc34)CC2)cc1` (stereo not shown) [compound 107], the figure is < 0.05 µM; as for `CCOc1ccc(NC(=O)C(C)N2CCC(Oc3ccnc4ccc(F)cc34)CC2)cc1` (stereo not shown) [compound 108], < 0.25 µM; as for `CCC(C(=O)Nc1ccc(Cl)cc1)N1CCC(Oc2ccnc3ccc(F)cc23)CC1` (stereo not shown) [compound 111], < 0.25 µM.
Consider `CCC(C(=O)Nc1ccc(Cl)cc1)N1CCC(Oc2ccnc3ccc(F)cc23)CC1` (stereo not shown) [compound 112], for which the IC50 was > 0.25 µM.
